Source: ChEMBL document CHEMBL6177985, “Discovery of Novel Cyclic Peptides as SMAD2-SMAD4 Interaction Inhibitors for the Treatment of Hepatic Fibrosis” (J Med Chem, 2025)
Active and inactive are the calls of the source. The rule behind the calls is not given here.

Assays:
[1] = tested on: LX-2; experiment: Inhibition of SMAD2 phosphorylation level in TGF-beta and TMSO induced human LX-2 cells at 300 uM by immunoblot analysis; type: functional, cell-based
[2] = tested on: LX-2; experiment: Downregulation of TGF-beta induced SMAD2 phosphorylation level in human LX-2 cells at 100 uM by Immunoblot analysis; type: functional, cell-based
[3] = tested on: LX-2; experiment: Inhibition of TGF-beta induced SMAD2 phosphorylation level in human LX-2 cells at 100 uM by Western blot analysis; type: functional, cell-based
[4] = species: Mus musculus; experiment: Effect on gene expression in CCl4-induced male C57BL/6J mouse assessed as change in genes associated with cellular component in liver tissue by RT-PCR analysis; type: functional, organism-based
[5] = tested on: LX-2; experiment: Antifibrotic activity against TGF-beta1 stimulated human LX-2 cells assessed as reduction in COL1A1 expression at 100 uM incubated for 24 hrs by Western blotting analysis; type: functional, cell-based
[6] = tested on: Mus musculus; experiment: Anti-fibrotic activity against CCl4-induced liver fibrosis male C57BL/6J mouse model assessed as reduction of ALT level at 400 microg/kg, ip measured for 3 weeks by biochemical analysis; type: functional, organism-based; conditions: dose 400.0 µg/kg
[7] = tested on: LX-2; experiment: Downregulation of TGF-beta induced P65 phosphorylation level in human LX-2 cells at 100 uM by Immunoblot analysis; type: functional, cell-based
[8] = tested on: Mus musculus; experiment: Anti-fibrotic activity against CCl4-induced liver fibrosis male C57BL/6J mouse model assessed as alleviation of COL1A1 level at 400 microg/kg, ip measured for 3 weeks by immunohistochemical staining based analysis; type: functional, organism-based; conditions: dose 400.0 µg/kg
[9] = tested on: Mus musculus; experiment: Anti-fibrotic activity against CCl4-induced liver fibrosis male C57BL/6J mouse model assessed as reduction in alpha-SMA expression in liver at 400 microg/kg, ip measured for 3 weeks by Western blot analysis; type: functional, organism-based; conditions: dose 400.0 µg/kg
[10] = tested on: LX-2; experiment: Inhibition of HSC activation in TGFbeta-induced human LX-2 cells assessed as reduction in COL1A1 at 100 uM by Western blot analysis; type: functional, cell-based
[11] = tested on: Mus musculus; experiment: Anti-fibrotic activity against CCl4-induced liver fibrosis male C57BL/6J mouse model assessed as decrease in collagen deposition at 400 microg/kg, ip measured for 3 weeks; type: functional, organism-based; conditions: dose 400.0 µg/kg
[12] = species: Mus musculus; experiment: Effect on gene expression in CCl4-induced male C57BL/6J mouse assessed as change in genes associated with molecular function in liver tissue by RT-PCR analysis; type: functional, organism-based
[13] = tested on: Mus musculus; experiment: Anti-fibrotic activity against CCl4-induced liver fibrosis male C57BL/6J mouse model assessed as reduction in SMAD2 level in liver at 400 microg/kg, ip measured for 3 weeks by Western blot analysis; type: functional, organism-based; conditions: dose 400.0 µg/kg
[14] = tested on: Mus musculus; experiment: Anti-fibrotic activity against CCl4-induced liver fibrosis male C57BL/6J mouse model assessed as alleviation of alpha SMA level at 400 microg/kg, ip measured for 3 weeks by immunohistochemical staining based analysis; type: functional, organism-based; conditions: dose 400.0 µg/kg
[15] = species: Homo sapiens; experiment: Inhibition of TGF-beta induced his tagged human SMAD2/human SMAD4 interaction at 100 uM incubated for 1 hr followed by anti-His-HRP addition and measured after 1 hr by blocking assay relative to control; conditions: time 2.0 hrs
[16] = tested on: Mus musculus; experiment: Anti-fibrotic activity against CCl4-induced liver fibrosis male C57BL/6J mouse model assessed as reduction in P65 phosphorylation level in liver at 400 microg/kg, ip measured for 3 weeks by Western blot analysis; type: functional, organism-based; conditions: dose 400.0 µg/kg
[17] = tested on: LX-2; experiment: Downregulation of TGF-beta induced alpha-SMA level in human LX-2 cells at 100 uM by Immunoblot analysis; type: functional, cell-based
[18] = tested on: Mus musculus; experiment: Anti-fibrotic activity against CCl4-induced liver fibrosis male C57BL/6J mouse model assessed as reduction in COL1A1 expression in liver at 400 microg/kg, ip measured for 3 weeks by Western blot analysis; type: functional, organism-based; conditions: dose 400.0 µg/kg
[19] = tested on: LX-2; experiment: Inhibition of TGF-beta induced SMAD2 phosphorylation level in human LX-2 cells by Western blot analysis; type: functional, cell-based; conditions: dose 25-100 µM
[20] = tested on: Mus musculus; experiment: Anti-fibrotic activity against CCl4-induced liver fibrosis male C57BL/6J mouse model assessed as decrease in inflammatory infiltration at 400 microg/kg, ip measured for 3 weeks; type: functional, organism-based; conditions: dose 400.0 µg/kg
[21] = tested on: LX-2; experiment: Inhibition of HSC activation in TGFbeta-induced human LX-2 cells assessed as reduction in alpha-SMA by Western blot analysis; type: functional, cell-based; conditions: dose 25-100 µM
[22] = tested on: LX-2; experiment: Inhibition of TGF-beta induced SMAD1/5/8 phosphorylation level in human LX-2 cells at 100 uM by Western blot analysis; type: functional, cell-based
[23] = tested on: Mus musculus; experiment: Anti-fibrotic activity against CCl4-induced liver fibrosis male C57BL/6J mouse model assessed as effect on SMAD1/5/8 phosphorylation in liver at 400 microg/kg, ip measured for 3 weeks by Western blot analysis; type: functional, organism-based; conditions: dose 400.0 µg/kg
[24] = tested on: Mus musculus; experiment: Anti-fibrotic activity against CCl4-induced liver fibrosis male C57BL/6J mouse model assessed as reduction of AST level at 400 microg/kg, ip measured for 3 weeks by biochemical analysis; type: functional, organism-based; conditions: dose 400.0 µg/kg
[25] = species: Mus musculus; experiment: Effect on gene expression in CCl4-induced male C57BL/6J mouse assessed as change in genes associated with biological process in liver tissue by RT-PCR analysis; type: functional, organism-based
[26] = tested on: LX-2; experiment: Downregulation of TGF-beta induced COL1A1 level in human LX-2 cells at 100 uM by Immunoblot analysis; type: functional, cell-based
[27] = tested on: LX-2; experiment: Antifibrotic activity against TGF-beta1 stimulated human LX-2 cells assessed as reduction in alpha-SMA expression at 100 uM incubated for 24 hrs by Western blotting analysis; type: functional, cell-based
[28] = Stability in rat serum measured up to 48 hrs by LC-MS/MS analysis; type: ADME, cell-free
[29] = species: Mus musculus; experiment: Effect on gene expression in CCl4-induced male C57BL/6J mouse assessed as upregulation of genes associated with collagen deposition in liver tissue by RT-PCR analysis; type: functional, organism-based
[30] = tested on: LX-2; experiment: Inhibition of HSC activation in TGFbeta-induced human LX-2 cells assessed as reduction in COL1A1 by Western blot analysis; type: functional, cell-based; conditions: dose 25-100 µM
[31] = tested on: LX-2; experiment: Inhibition of HSC activation in TGFbeta-induced human LX-2 cells assessed as reduction in alpha-SMA at 100 uM by Western blot analysis; type: functional, cell-based
[32] = tested on: LX-2; experiment: Inhibition of TGF-beta induced SMAD3 phosphorylation level in human LX-2 cells at 100 uM by Western blot analysis; type: functional, cell-based
[33] = species: Mus musculus; experiment: Effect on gene expression in CCl4-induced male C57BL/6J mouse assessed as upregulation of genes associated with inflammatory response in liver tissue by RT-PCR analysis; type: functional, organism-based
[34] = tested on: Mus musculus; experiment: Anti-fibrotic activity against CCl4-induced liver fibrosis male C57BL/6J mouse model assessed as effect on SMAD3 phosphorylation in liver at 400 microg/kg, ip measured for 3 weeks by Western blot analysis; type: functional, organism-based; conditions: dose 400.0 µg/kg

With `C[C@@H]1NC(=O)[C@@H]2CCCN2C(=O)[C@H](CCCNC(=N)N)NC(=O)[C@H]([C@@H](C)O)NC(=O)[C@H](CO)NC(=O)[C@H]([C@@H](C)O)NC(=O)[C@H](CCC(=O)O)NC(=O)[C@H](Cc2c[nH]c3ccccc23)NC(=O)[C@@H](Cc2ccccc2)NC(=O)[C@H](CO)NC1=O` the inhibition [1] was “inactive”, the Activity [2] was “Active” and the inhibition [3] was “Active”. For the same molecule, the Activity [4] was “Active”, the Activity [5] was “Active” and the Activity [6] was “Active”. The Activity [7] was “Active”, the Activity [8] was “Active” and the Activity [9] was “Active; Compound Showed Superior Effect Than M10”. The inhibition [10] was “Active”, the Activity [11] was “Active; Compound Showed Higher Efficacy Than M10” and the Activity [12] was “Active”. For the same molecule, the Activity [13] was “Active; Compound Showed Superior Effect Than M10”, the Activity [14] was “Active” and the inhibition [15] was 85.6%. For the same molecule, the Activity [16] was “Active; Compound Showed Superior Effect Than M10”, the Activity [17] was “Active” and the Activity [18] was “Active; Compound Showed Superior Effect Than M10”. The inhibition [19] was “Dose-dependent-effect”, the Activity [20] was “Active; Compound Showed Higher Efficacy Than M10” and the inhibition [21] was “Dose-dependent-effect”. For the same molecule, the inhibition [22] was “inactive”, the Activity [23] was “inactive” and the Activity [24] was “Active”. The Activity [25] was “Active”, the Activity [26] was “Active” and the Activity [27] was “Active”. For the same molecule, the Stability [28] was “Stable”, the Activity [29] was “Active” and the inhibition [30] was “Dose-dependent-effect”. For the same molecule, the inhibition [31] was “Active”, the inhibition [32] was “inactive” and the Activity [33] was “Active”. For the same molecule, the Activity [34] was “inactive”.
